Patent US20050197350A1, “Novel quinoline, tetrahydroquinazoline, and pyrimidine derivatives and methods of treatment related to the use thereof” (TAISHO PHARMACEUTICAL CO., LTD., priority 2003, published 2005)

These compounds were tested on MCH receptors (assay: MCH receptor activity class (method not given)). Conditions: class by percent of control at 10^-7 M or IC50.
For `CN(C)c1cc(N[C@H]2CC[C@@H](NC(=O)Nc3ccccc3C(C)(C)C)CC2)nc2ccccc12` [compound 2114], the class was 3 (Class 3 The value of percent of control at 10^−7 M was more than 60% or the value of IC50 was more than 200 nM.).
With `Cc1c(Cl)cccc1NC(=O)N[C@H]1CC[C@@H](Nc2cc(N(C)C)c3ccccc3n2)CC1` [compound 2115] the class was 3 (Class 3 The value of percent of control at 10^−7 M was more than 60% or the value of IC50 was more than 200 nM.).
For `CN(C)c1cc(N[C@H]2CC[C@@H](NC(=O)Nc3c(F)cc(Br)cc3F)CC2)nc2ccccc12` [compound 2116], the class was 3 (Class 3 The value of percent of control at 10^−7 M was more than 60% or the value of IC50 was more than 200 nM.).
In the case of `CN(C)c1cc(N[C@H]2CC[C@@H](NC(=O)Nc3ccc(Cl)cc3C(F)(F)F)CC2)nc2ccccc12` [compound 2117], the class is reported as 3 (Class 3 The value of percent of control at 10^−7 M was more than 60% or the value of IC50 was more than 200 nM.).
For `CN(C)c1cc(N[C@H]2CC[C@@H](NC(=O)Nc3ccc(C#N)cc3)CC2)nc2ccccc12` [compound 2118], the class was 3 (Class 3 The value of percent of control at 10^−7 M was more than 60% or the value of IC50 was more than 200 nM.).
With `CN(C)c1cc(N[C@H]2CC[C@@H](NC(=O)NC(c3ccccc3)c3ccccc3)CC2)nc2ccccc12` [compound 2119, N-(cis-4-{[4-(dimethylamino)quinolin-2-yl]amino}cyclohexyl)-N′-(diphenylmethyl)urea] the class was 2 (Class 2: The value of percent of control at 10^−7 M was from 40% to 60% or the value of IC′50 was from 50 nM to 200 nM.).
For `Cc1cc(Br)cc(C)c1NC(=O)N[C@H]1CC[C@@H](Nc2cc(N(C)C)c3ccccc3n2)CC1` [compound 2120], the class was 1 (Class 1: The value of percent of control at 10^−7 M was less than 40% or the value of IC50 was less than 50 nM.).
In the case of `Cc1noc(-c2ccccc2)c1NC(=O)N[C@H]1CC[C@@H](Nc2cc(N(C)C)c3ccccc3n2)CC1` [compound 2121, N-(cis-4-{[4-(dimethylamino)quinolin-2-yl]amino}cyclohexyl)-N′-(3-methyl-5-phenylisoxazol-4-yl)urea], the class is reported as 2 (Class 2: The value of percent of control at 10^−7 M was from 40% to 60% or the value of IC′50 was from 50 nM to 200 nM.).
With `Cc1cc(NC(=O)N[C@H]2CC[C@@H](Nc3cc(N(C)C)c4ccccc4n3)CC2)c(C(F)(F)F)o1` [compound 2122] the class was 3 (Class 3 The value of percent of control at 10^−7 M was more than 60% or the value of IC50 was more than 200 nM.).
In the case of `CN(C)c1cc(N[C@H]2CC[C@@H](NC(=O)Nc3ccccc3Br)CC2)nc2ccccc12` [compound 2123], the class is reported as 3 (Class 3 The value of percent of control at 10^−7 M was more than 60% or the value of IC50 was more than 200 nM.).
With `CN(C)c1cc(N[C@H]2CC[C@@H](NC(=O)Nc3ccccc3-c3ccccc3)CC2)nc2ccccc12` [compound 2124] the class was 3 (Class 3 The value of percent of control at 10^−7 M was more than 60% or the value of IC50 was more than 200 nM.).
In the case of `CCCCNC(=O)N[C@H]1CC[C@@H](Nc2cc(N(C)C)c3ccccc3n2)CC1` [compound 2125], the class is reported as 3 (Class 3 The value of percent of control at 10^−7 M was more than 60% or the value of IC50 was more than 200 nM.).
`Cc1cccc(NC(=O)N[C@H]2CC[C@@H](Nc3cc(N(C)C)c4ccccc4n3)CC2)c1C` [compound 2126] was tested, and the class was 3 (Class 3 The value of percent of control at 10^−7 M was more than 60% or the value of IC50 was more than 200 nM.).
`CCOC(=O)c1cccc(NC(=O)N[C@H]2CC[C@@H](Nc3cc(N(C)C)c4ccccc4n3)CC2)c1` [compound 2127] was tested, and the class was 3 (Class 3 The value of percent of control at 10^−7 M was more than 60% or the value of IC50 was more than 200 nM.).
`C=C(C)c1cccc(C(C)(C)NC(=O)N[C@H]2CC[C@@H](Nc3cc(N(C)C)c4ccccc4n3)CC2)c1` [compound 2128] was tested, and the class was 3 (Class 3 The value of percent of control at 10^−7 M was more than 60% or the value of IC50 was more than 200 nM.).
`CN(C)c1cc(N[C@H]2CC[C@@H](NC(=O)Nc3cccc4ccccc34)CC2)nc2ccccc12` [compound 2130, N-(cis-4-{[4-(dimethylamino)quinolin-2-yl]amino}cyclohexyl)-N′-1-naphthylurea] was tested, and the class was 1 (Class 1: The value of percent of control at 10^−7 M was less than 40% or the value of IC50 was less than 50 nM.).
For `CN(C)c1cc(N[C@H]2CC[C@@H](NC(=O)NC3C[C@H]3c3ccccc3)CC2)nc2ccccc12` (stereo partly shown) [compound 2131], the class was 3 (Class 3 The value of percent of control at 10^−7 M was more than 60% or the value of IC50 was more than 200 nM.).
For `CN(C)c1cc(N[C@H]2CC[C@@H](NC(=O)Nc3ccc(Oc4ccccc4)cc3)CC2)nc2ccccc12` [compound 2132], the class was 3 (Class 3 The value of percent of control at 10^−7 M was more than 60% or the value of IC50 was more than 200 nM.).
`CCCCCNC(=O)N[C@H]1CC[C@@H](Nc2cc(N(C)C)c3ccccc3n2)CC1` [compound 2133] was tested, and the class was 3 (Class 3 The value of percent of control at 10^−7 M was more than 60% or the value of IC50 was more than 200 nM.).
`CC(NC(=O)NC1CCC(Nc2cc(N(C)C)c3ccccc3n2)CC1)c1ccccc1` (stereo not shown) [compound 2137] was tested, and the class was 3 (Class 3 The value of percent of control at 10^−7 M was more than 60% or the value of IC50 was more than 200 nM.).
`CN(C)c1cc(N[C@H]2CC[C@@H](NC(=O)Nc3c(Cl)c(Cl)cc(Cl)c3Cl)CC2)nc2ccccc12` [compound 2138] was tested, and the class was 3 (Class 3 The value of percent of control at 10^−7 M was more than 60% or the value of IC50 was more than 200 nM.).
In the case of `CN(C)c1cc(N[C@H]2CC[C@@H](NC(=O)Nc3ccc(Br)cc3Br)CC2)nc2ccccc12` [compound 2139], the class is reported as 3 (Class 3 The value of percent of control at 10^−7 M was more than 60% or the value of IC50 was more than 200 nM.).
In the case of `CN(C)c1cc(N[C@H]2CC[C@@H](NC(=O)NCc3ccc(Cl)cc3Cl)CC2)nc2ccccc12` [compound 2140], the class is reported as 3 (Class 3 The value of percent of control at 10^−7 M was more than 60% or the value of IC50 was more than 200 nM.).
With `COc1ccc(NC(=O)N[C@H]2CC[C@@H](Nc3cc(N(C)C)c4ccccc4n3)CC2)c(OC)c1` [compound 2141] the class was 3 (Class 3 The value of percent of control at 10^−7 M was more than 60% or the value of IC50 was more than 200 nM.).
In the case of `CCOc1ccccc1NC(=O)N[C@H]1CC[C@@H](Nc2cc(N(C)C)c3ccccc3n2)CC1` [compound 2142], the class is reported as 3 (Class 3 The value of percent of control at 10^−7 M was more than 60% or the value of IC50 was more than 200 nM.).
For `CN(C)c1cc(N[C@H]2CC[C@@H](NC(=O)NCc3ccccc3F)CC2)nc2ccccc12` [compound 2143], the class was 3 (Class 3 The value of percent of control at 10^−7 M was more than 60% or the value of IC50 was more than 200 nM.).
In the case of `Cc1cc([N+](=O)[O-])ccc1NC(=O)N[C@H]1CC[C@@H](Nc2cc(N(C)C)c3ccccc3n2)CC1` [compound 2144], the class is reported as 3 (Class 3 The value of percent of control at 10^−7 M was more than 60% or the value of IC50 was more than 200 nM.).
`Cc1ccc([N+](=O)[O-])cc1NC(=O)N[C@H]1CC[C@@H](Nc2cc(N(C)C)c3ccccc3n2)CC1` [compound 2145] was tested, and the class was 3 (Class 3 The value of percent of control at 10^−7 M was more than 60% or the value of IC50 was more than 200 nM.).
With `Cc1ccccc1CNC(=O)N[C@H]1CC[C@@H](Nc2cc(N(C)C)c3ccccc3n2)CC1` [compound 2146] the class was 3 (Class 3 The value of percent of control at 10^−7 M was more than 60% or the value of IC50 was more than 200 nM.).
For `CN(C)c1cc(N[C@H]2CC[C@@H](NC(=O)Nc3ccccc3[N+](=O)[O-])CC2)nc2ccccc12` [compound 2147], the class was 3 (Class 3 The value of percent of control at 10^−7 M was more than 60% or the value of IC50 was more than 200 nM.).
With `CN(C)c1cc(N[C@H]2CC[C@@H](NC(=O)Nc3ccc4c(c3)OCO4)CC2)nc2ccccc12` [compound 2148] the class was 3 (Class 3 The value of percent of control at 10^−7 M was more than 60% or the value of IC50 was more than 200 nM.).
In the case of `COc1cc(NC(=O)N[C@H]2CC[C@@H](Nc3cc(N(C)C)c4ccccc4n3)CC2)cc(OC)c1OC` [compound 2149, N-(cis-4-{[4-(dimethylamino)quinolin-2-yl]amino}cyclohexyl)-N′-(3,4,5-trimethoxyphenyl)urea], the class is reported as 1 (Class 1: The value of percent of control at 10^−7 M was less than 40% or the value of IC50 was less than 50 nM.).
For `COc1ccc(NC(=O)N[C@H]2CC[C@@H](Nc3cc(N(C)C)c4ccccc4n3)CC2)cc1OC` [compound 2150], the class was 3 (Class 3 The value of percent of control at 10^−7 M was more than 60% or the value of IC50 was more than 200 nM.).
With `COc1ccc(NC(=O)N[C@H]2CC[C@@H](Nc3cc(N(C)C)c4ccccc4n3)CC2)cc1Cl` [compound 2151] the class was 3 (Class 3 The value of percent of control at 10^−7 M was more than 60% or the value of IC50 was more than 200 nM.).
`CN(C)c1cc(N[C@H]2CC[C@@H](NC(=O)Nc3ccc(Br)cc3C(F)(F)F)CC2)nc2ccccc12` [compound 2152] was tested, and the class was 3 (Class 3 The value of percent of control at 10^−7 M was more than 60% or the value of IC50 was more than 200 nM.).
For `CN(C)c1cc(N[C@H]2CC[C@@H](NC(=O)NCc3ccc(Br)cc3)CC2)nc2ccccc12` [compound 2153], the class was 3 (Class 3 The value of percent of control at 10^−7 M was more than 60% or the value of IC50 was more than 200 nM.).
In the case of `Cc1cc(Cl)ccc1NC(=O)N[C@H]1CC[C@@H](Nc2cc(N(C)C)c3ccccc3n2)CC1` [compound 2154], the class is reported as 3 (Class 3 The value of percent of control at 10^−7 M was more than 60% or the value of IC50 was more than 200 nM.).
`CN(C)c1cc(N[C@H]2CC[C@@H](NC(=O)NCc3ccc(F)cc3)CC2)nc2ccccc12` [compound 2155] was tested, and the class was 3 (Class 3 The value of percent of control at 10^−7 M was more than 60% or the value of IC50 was more than 200 nM.).
With `COc1ccc(NC(=O)N[C@H]2CC[C@@H](Nc3cc(N(C)C)c4ccccc4n3)CC2)c(C)c1` [compound 2156] the class was 3 (Class 3 The value of percent of control at 10^−7 M was more than 60% or the value of IC50 was more than 200 nM.).
`COc1cc(OC)c(NC(=O)N[C@H]2CC[C@@H](Nc3cc(N(C)C)c4ccccc4n3)CC2)cc1Cl` [compound 2157, N-(5-chloro-2,4-dimethoxyphenyl)-N′-(cis-4-{[4-(dimethylamino)quinolin-2-yl]amino}cyclohexyl)urea] was tested, and the class was 1 (Class 1: The value of percent of control at 10^−7 M was less than 40% or the value of IC50 was less than 50 nM.).
